# Literature values in patent US20260041939A1, “METHODS FOR THE TREATMENT OF HY[…] TRANSCRANIAL-FOCUSED-ULTRASOUND” (SUNNYBROOK RESEARCH INSTITUTE, priority 2022, published 2026).
# Tested on: c-FOS expression
# Conditions: microinjection into the tuberomammillary nucleus of rats
smiles,measurement,value
"CCCC(C)C1(CC)C(=O)NC(=O)NC1=O (stereo not drawn) [Pentobarbital, pentobarbital]",c-FOS expression in the locus coeruleus,unchanged
same,c-FOS expression in the tuberomammillary nucleus,suppress
same,c-FOS expression in the ventrolateral preoptic nucleus (VLPO),increase
